The source made the active and inactive calls. The calls are words filed in the database; no cut-off is given here.
Tested on: Mycobacterium tuberculosis
Assay: Antimycobacterial activity against Mycobacterium tuberculosis overexpressing Rv0560c-OE in iron-free GAST medium at 0.04 to 10 uM after 8 days by two fold serial dilution method
Assay type: functional, organism-based

Nc1ncnc2c1ncn2[C@@H]1O[C@H](COS(=O)(=O)NC(=O)c2ccccc2O)[C@@H](O)[C@H]1O
Activity: Active
